Test results: ChEMBL document CHEMBL3886540, “Orally available viridiofungin derivative possessing anti-HCV activity” (2016)

Experiments:
Cytochrome P450 2C9 [1] = target: T1, Cytochrome P450 2C9 (Homo sapiens, UniProt P11712); assay: (§1) CYP Inhibition Assay (Without Preincubation): Without Preincubation: To a 96 deep well plate was added 2.5 uL, of the test substance solution (x200 concentration), 442.5 uL of Incubation Mixture, and 5 uL of the substrate solution, and the solution was mixed and warmed to 37° C. for 5 minutes. To this incubation solution 50 uL of 10 mM NADPH was added to start the reaction, and incubated at 37° C. for 5 minutes. After the incubation, 100 uL of the Incubation Mixture was removed, added to 150 uL of isopropanol containing IS and mixed. […] The filtrate was used for LC-MS/MS analysis.
Cytochrome P450 3A4 [2] = target: T2, Cytochrome P450 3A4 (Homo sapiens, UniProt P08684); assay: as §1
Cytochrome P450 2C9 [3] = target: T1, Cytochrome P450 2C9; assay: (§2) CYP Inhibition Assay (With Preincubation): With Preincubation: To a 96 deep well plate was added 2.5 uL of the test substance solution (x200 concentration), and 442.5 uL of Incubation Mixture, and the solution was mixed and warmed to 37° C. for 5 minutes. To this incubation solution 50 uL of 10 mM NADPH was added and preincubated at 37° C. for 30 minutes. […] After the reaction, 100 uL of the Incubation Mixture was removed, added to 150 uL of isopropanol containing IS and mixed. […] The filtrate was used for LC-MS/MS analysis.
Cytochrome P450 3A4 [4] = target: T2, Cytochrome P450 3A4; assay: as §2

T1 sequence (P11712 whole entry): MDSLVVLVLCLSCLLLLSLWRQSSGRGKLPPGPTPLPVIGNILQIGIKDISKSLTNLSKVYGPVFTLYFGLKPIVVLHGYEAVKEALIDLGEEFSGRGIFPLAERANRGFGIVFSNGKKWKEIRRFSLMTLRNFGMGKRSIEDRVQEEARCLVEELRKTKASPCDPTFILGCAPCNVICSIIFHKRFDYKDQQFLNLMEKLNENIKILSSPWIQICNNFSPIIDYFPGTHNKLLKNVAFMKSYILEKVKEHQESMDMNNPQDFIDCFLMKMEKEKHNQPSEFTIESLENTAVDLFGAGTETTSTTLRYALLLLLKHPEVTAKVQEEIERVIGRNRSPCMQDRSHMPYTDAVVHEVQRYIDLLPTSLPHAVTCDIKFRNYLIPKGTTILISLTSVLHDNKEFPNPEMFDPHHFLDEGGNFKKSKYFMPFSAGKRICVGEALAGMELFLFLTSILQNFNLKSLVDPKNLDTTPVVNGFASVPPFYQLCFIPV
T2 sequence (P08684 whole entry): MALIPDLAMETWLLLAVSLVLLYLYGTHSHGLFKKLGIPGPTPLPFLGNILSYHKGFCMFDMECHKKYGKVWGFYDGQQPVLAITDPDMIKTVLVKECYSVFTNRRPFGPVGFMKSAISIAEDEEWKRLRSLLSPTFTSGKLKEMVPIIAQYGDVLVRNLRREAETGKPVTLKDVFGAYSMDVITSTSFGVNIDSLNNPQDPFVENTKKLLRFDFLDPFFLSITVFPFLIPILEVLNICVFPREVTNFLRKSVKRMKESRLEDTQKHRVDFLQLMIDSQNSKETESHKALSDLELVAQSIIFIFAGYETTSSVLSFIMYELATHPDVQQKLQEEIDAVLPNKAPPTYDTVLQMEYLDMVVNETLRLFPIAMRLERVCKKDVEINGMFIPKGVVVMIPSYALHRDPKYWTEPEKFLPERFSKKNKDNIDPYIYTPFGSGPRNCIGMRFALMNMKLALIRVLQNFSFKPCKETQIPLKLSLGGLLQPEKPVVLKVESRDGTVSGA

| SMILES | IC50 (Cytochrome P450 2C9 [1]) [µM] | IC50 (Cytochrome P450 3A4 [2]) [µM] | IC50 (Cytochrome P450 2C9 [3]) [µM] | IC50 (Cytochrome P450 3A4 [4]) [µM] |
| --- | --- | --- | --- | --- |
| CCCCCCCC(F)(F)CCCCCC/C=C/[C@H](C(O)N[C@@H](Cc1ccc(OCCCC)cc1)C(=O)O)[C@@](O)(CCOC)C(=O)O (stereo partly drawn) | 12.5 | 16.2 | 24.4 | 11.8 |
| CCCCCCCC(F)(F)CCCCCC/C=C/[C@H](C(O)N[C@@H](Cc1ccc(OCCCC)cc1)C(=O)OC)[C@@](O)(CCOC)C(=O)O (stereo partly drawn) | 7.7 | 23.8 | 19.6 | 11.9 |
